molecular target: URAT-1 transporter (Homo sapiens (Human), UniProt Q96S37); test: URAT-1 inhibitor activity: [14C]-uric acid uptake in CHO-URAT1(L)GFP#8 (CHO#8) cells, scintillation proximity; assay type: cell-based; conditions: inhibition of [14C]-uric acid (30 nM) uptake into CHO#8 cells; compound 0 to 10 μM; 4 parameter logistic fit
How it was run: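 CHO cells stably expressing human URAT1 long isoform–eGFP fusion, pre-incubated 1 h in chloride-containing buffer pH 7.4, then given 30 nM [14C]-uric acid with compound (0–10 μM, 0.25% DMSO) in chloride-free gluconate buffer pH 7.4. Uptake measured by scintillation proximity on Cytostar plates.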

URAT-1 transporter, sequence (Q96S37 other isoform, or with tags, fused parts or gaps): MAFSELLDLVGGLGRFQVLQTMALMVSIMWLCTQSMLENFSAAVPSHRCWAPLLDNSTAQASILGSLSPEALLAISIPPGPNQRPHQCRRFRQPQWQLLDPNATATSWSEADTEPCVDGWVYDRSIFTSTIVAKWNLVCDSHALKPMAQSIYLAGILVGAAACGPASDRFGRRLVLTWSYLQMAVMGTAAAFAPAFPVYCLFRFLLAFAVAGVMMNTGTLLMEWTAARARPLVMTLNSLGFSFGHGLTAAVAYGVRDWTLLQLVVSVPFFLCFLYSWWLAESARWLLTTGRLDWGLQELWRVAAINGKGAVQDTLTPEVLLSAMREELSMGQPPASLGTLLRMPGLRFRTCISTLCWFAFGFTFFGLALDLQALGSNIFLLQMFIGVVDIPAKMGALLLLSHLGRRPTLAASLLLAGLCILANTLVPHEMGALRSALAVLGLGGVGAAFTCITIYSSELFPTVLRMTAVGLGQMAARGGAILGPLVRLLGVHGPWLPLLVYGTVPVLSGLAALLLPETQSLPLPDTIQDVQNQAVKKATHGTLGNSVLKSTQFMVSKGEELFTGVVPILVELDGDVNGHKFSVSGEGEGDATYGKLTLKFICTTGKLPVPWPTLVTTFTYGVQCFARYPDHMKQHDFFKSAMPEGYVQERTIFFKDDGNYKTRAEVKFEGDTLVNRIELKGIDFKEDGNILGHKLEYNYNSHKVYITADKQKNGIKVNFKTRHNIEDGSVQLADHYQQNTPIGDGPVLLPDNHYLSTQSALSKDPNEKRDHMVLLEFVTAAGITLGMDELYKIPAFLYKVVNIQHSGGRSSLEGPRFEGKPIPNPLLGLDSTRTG

Compound | IC50
COc1cccnc1NS(=O)(=O)c1ccc(Oc2ccc(C#N)c(Cl)c2)c(C#N)c1 [Example 102, 4-(3-chloro-4-cyanophenoxy)-3-cyano-N-(3-methoxypyridin-2-yl)benzenesulfonamide] | 3130 nM
N#Cc1ccc(Oc2ccc(S(=O)(=O)Nc3ncccc3F)cc2C#N)cc1Cl [Example 103, 4-(3-chloro-4-cyanophenoxy)-3-cyano-N-(3-fluoropyridin-2-yl)benzenesulfonamide] | 145 nM
N#Cc1ccc(Oc2ccc(S(=O)(=O)Nc3cc(F)ccn3)cc2C#N)cc1Cl [Example 104, 4-(3-chloro-4-cyanophenoxy)-3-cyano-N-(4-fluoropyridin-2-yl)benzenesulfonamide] | 15 nM
Cc1cc(Oc2ccc(S(=O)(=O)Nc3ccc(F)cn3)cc2C#N)cc(C(C)C)c1 [Example 105, 3-cyano-N-(5-fluoropyridin-2-yl)-4-[3-methyl-5-(propan-2-yl)phenoxy]benzenesulfonamide] | > 10000 nM
N#Cc1cc(S(=O)(=O)Nc2ccc(F)cn2)ccc1Oc1cc(Cl)c(F)cc1Cl [Example 107, 3-cyano-4-(2,5-dichloro-4-fluorophenoxy)-N-(5-fluoropyridin-2-yl)benzenesulfonamide] | 58 nM
Cc1ccc(F)c(Oc2ccc(S(=O)(=O)Nc3ccc(F)cn3)cc2C#N)c1Cl [Example 108, 4-(2-chloro-6-fluoro-3-methylphenoxy)-3-cyano-N-(5-fluoropyridin-2-yl)benzenesulfonamide] | 98 nM
COc1cccc(F)c1Oc1ccc(S(=O)(=O)Nc2ccc(F)cn2)cc1C#N [Example 111, 3-cyano-4-(2-fluoro-6-methoxyphenoxy)-N-(5-fluoropyridin-2-yl)benzenesulfonamide] | 74 nM
COc1c(F)ccc(Oc2ccc(S(=O)(=O)Nc3ccc(F)cn3)cc2C#N)c1Cl [Example 112, 4-(2-chloro-4-fluoro-3-methoxyphenoxy)-3-cyano-N-(5-fluoropyridin-2-yl)benzenesulfonamide] | 177 nM
CCN(CC)c1cccc(Oc2ccc(S(=O)(=O)Nc3ccc(F)cn3)cc2C#N)c1 [Example 113, 3-cyano-4-[3-(diethylamino)phenoxy]-N-(5-fluoropyridin-2-yl)benzenesulfonamide] | > 10000 nM
COc1cccc(Cl)c1Oc1ccc(S(=O)(=O)Nc2ccc(F)cn2)cc1C#N [Example 114, 4-(2-chloro-6-methoxyphenoxy)-3-cyano-N-(5-fluoropyridin-2-yl)benzenesulfonamide] | 69 nM
COc1cccc(C)c1Oc1ccc(S(=O)(=O)Nc2ccc(F)cn2)cc1C#N [Example 115, 3-cyano-N-(5-fluoropyridin-2-yl)-4-(2-methoxy-6-methylphenoxy)benzenesulfonamide] | 24 nM
CC(C)c1ncc(Oc2ccc(S(=O)(=O)Nc3ccc(F)cn3)cc2C#N)cc1Cl [Example 117, 4-{[5-chloro-6-(propan-2-yl)pyridin-3-yl]oxy}-3-cyano-N-(5-fluoropyridin-2-yl)benzenesulfonamide] | > 10000 nM
N#Cc1cc(S(=O)(=O)Nc2ccc(F)cn2)ccc1Oc1cccc(C2CC2)c1 [Example 118, 3-cyano-4-(3-cyclopropylphenoxy)-N-(5-fluoropyridin-2-yl)benzenesulfonamide] | > 10000 nM
Cc1ccc(F)c(Oc2ccc(S(=O)(=O)Nc3ccc(F)cn3)cc2C#N)c1F [Example 119, 3-cyano-4-(2,6-difluoro-3-methylphenoxy)-N-(5-fluoropyridin-2-yl)benzenesulfonamide] | 90 nM
CC(C)COc1ccc(Oc2ccc(S(=O)(=O)Nc3ccc(F)cn3)cc2C#N)cn1 [Example 121, 3-cyano-N-(5-fluoropyridin-2-yl)-4-{[6-(2-methylpropoxy)pyridin-3-yl]oxy}benzenesulfonamide] | > 10000 nM
N#Cc1cc(S(=O)(=O)Nc2ccc(F)cn2)ccc1Oc1c(F)cccc1F [Example 124, 3-cyano-4-(2,6-difluorophenoxy)-N-(5-fluoropyridin-2-yl)benzenesulfonamide] | > 10000 nM
CCOc1ncc(Oc2ccc(S(=O)(=O)Nc3ccc(F)cn3)cc2C#N)cc1Cl [Example 125, 4-[(5-chloro-6-ethoxypyridin-3-yl)oxy]-3-cyano-N-(5-fluoropyridin-2-yl)benzenesulfonamide] | 237 nM
CC(C)c1ccc(Oc2ccc(S(=O)(=O)Nc3ccc(F)cn3)cc2C#N)cc1 [Example 126, 3-cyano-N-(5-fluoropyridin-2-yl)-4-[4-(propan-2-yl)phenoxy]benzenesulfonamide] | > 10000 nM
Cc1ccc(Oc2ccc(S(=O)(=O)Nc3ccc(F)cn3)cc2C#N)c(F)c1F [Example 128, 3-cyano-4-(2,3-difluoro-4-methylphenoxy)-N-(5-fluoropyridin-2-yl)benzenesulfonamide] | > 10000 nM
N#Cc1cc(S(=O)(=O)Nc2ccc(F)cn2)ccc1Oc1cc(F)c(F)cc1F [Example 130, 3-cyano-N-(5-fluoropyridin-2-yl)-4-(2,4,5-trifluorophenoxy)benzenesulfonamide] | 119 nM
CN(C)c1cccc(Oc2ccc(S(=O)(=O)Nc3ccc(F)cn3)cc2C#N)c1 [Example 131, 3-cyano-4-[3-(dimethylamino)phenoxy]-N-(5-fluoropyridin-2-yl)benzenesulfonamide] | > 10000 nM
COc1ccc(Oc2ccc(S(=O)(=O)Nc3ccc(F)cn3)cc2C#N)cc1F [Example 132, 3-cyano-4-(3-fluoro-4-methoxyphenoxy)-N-(5-fluoropyridin-2-yl)benzenesulfonamide] | 38 nM
Cc1cc(Oc2ccc(S(=O)(=O)Nc3ccc(F)cn3)cc2C#N)c(C(C)C)cc1Cl [Example 133, 4-[4-chloro-5-methyl-2-(propan-2-yl)phenoxy]-3-cyano-N-(5-fluoropyridin-2-yl)benzenesulfonamide] | 793 nM
N#Cc1cc(S(=O)(=O)Nc2ccc(F)cn2)ccc1Oc1c(F)ccc(F)c1F [Example 134, 3-cyano-N-(5-fluoropyridin-2-yl)-4-(2,3,6-trifluorophenoxy)benzenesulfonamide] | > 10000 nM
CCOc1cccc(Oc2ccc(S(=O)(=O)Nc3ccc(F)cn3)cc2C#N)c1 [Example 135, 3-cyano-4-(3-ethoxyphenoxy)-N-(5-fluoropyridin-2-yl)benzenesulfonamide] | > 10000 nM
Cc1cc(Oc2ccc(S(=O)(=O)Nc3ccc(F)cn3)cc2C#N)ccc1C(C)C [Example 139, 3-cyano-N-(5-fluoropyridin-2-yl)-4-[3-methyl-4-(propan-2-yl)phenoxy]benzenesulfonamide] | > 10000 nM
Cc1cc(Oc2ccc(S(=O)(=O)Nc3ccc(F)cn3)cc2C#N)ccc1F [Example 141, 3-cyano-4-(4-fluoro-3-methylphenoxy)-N-(5-fluoropyridin-2-yl)benzenesulfonamide] | 43 nM

Now from value to compound:

IC50 | Compound
> 10000 nM | COc1ccc(Cl)cc1Oc1ccc(S(=O)(=O)Nc2ccc(F)cn2)cc1C#N [Example 106, 4-(5-chloro-2-methoxyphenoxy)-3-cyano-N-(5-fluoropyridin-2-yl)benzenesulfonamide]
892 nM | Cc1cc(Oc2ccc(S(=O)(=O)Nc3ccc(F)cn3)cc2C#N)c(Cl)cc1Cl [Example 109, 3-cyano-4-(2,4-dichloro-5-methylphenoxy)-N-(5-fluoropyridin-2-yl)benzenesulfonamide]
123 nM | CCOc1cc(Cl)ccc1Oc1ccc(S(=O)(=O)Nc2ccc(F)cn2)cc1C#N [Example 110, 4-(4-chloro-2-ethoxyphenoxy)-3-cyano-N-(5-fluoropyridin-2-yl)benzenesulfonamide]
> 10000 nM | CCOc1ccc(Oc2ccc(S(=O)(=O)Nc3ccc(F)cn3)cc2C#N)cc1Cl [Example 116, 4-(3-chloro-4-ethoxyphenoxy)-3-cyano-N-(5-fluoropyridin-2-yl)benzenesulfonamide]
> 10000 nM | COc1ccc(F)cc1Oc1ccc(S(=O)(=O)Nc2ccc(F)cn2)cc1C#N [Example 120, 3-cyano-4-(5-fluoro-2-methoxyphenoxy)-N-(5-fluoropyridin-2-yl)benzenesulfonamide]
99 nM | N#Cc1cc(S(=O)(=O)Nc2ccc(F)cn2)ccc1Oc1ccc(Cl)c(Cl)c1 [Example 122, 3-cyano-4-(3,4-dichlorophenoxy)-N-(5-fluoropyridin-2-yl)benzenesulfonamide]
91 nM | Cc1cccc(Cl)c1Oc1ccc(S(=O)(=O)Nc2ccc(F)cn2)cc1C#N [Example 123, 4-(2-chloro-6-methylphenoxy)-3-cyano-N-(5-fluoropyridin-2-yl)benzenesulfonamide]
> 10000 nM | CC(C)(C)c1ccc(Oc2ccc(S(=O)(=O)Nc3ccc(F)cn3)cc2C#N)c(Cl)c1 [Example 127, 4-(4-tert-butyl-2-chlorophenoxy)-3-cyano-N-(5-fluoropyridin-2-yl)benzenesulfonamide]
> 10000 nM | CC(C)(C)c1cccc(Oc2ccc(S(=O)(=O)Nc3ccc(F)cn3)cc2C#N)c1 [Example 129, 4-(3-tert-butylphenoxy)-3-cyano-N-(5-fluoropyridin-2-yl)benzenesulfonamide]
> 10000 nM | Cc1cc(Cl)c(Oc2ccc(S(=O)(=O)Nc3ccc(F)cn3)cc2C#N)cc1C [Example 136, 4-(2-chloro-4,5-dimethylphenoxy)-3-cyano-N-(5-fluoropyridin-2-yl)benzenesulfonamide]
> 10000 nM | CC(C)(C)c1ccc(Oc2ccc(S(=O)(=O)Nc3ccc(F)cn3)cc2C#N)cc1 [Example 137, 4-(4-tert-butylphenoxy)-3-cyano-N-(5-fluoropyridin-2-yl)benzenesulfonamide]
9210 nM | CCOc1cc(C)ccc1Oc1ccc(S(=O)(=O)Nc2ccc(F)cn2)cc1C#N [Example 138, 3-cyano-4-(2-ethoxy-4-methylphenoxy)-N-(5-fluoropyridin-2-yl)benzenesulfonamide]
> 10000 nM | COc1cc(C)ccc1Oc1ccc(S(=O)(=O)Nc2ccc(F)cn2)cc1C#N [Example 140, 3-cyano-N-(5-fluoropyridin-2-yl)-4-(2-methoxy-4-methylphenoxy)benzenesulfonamide]
